Consider four molecules from patent US20230381204A1, “COMPOSITIONS FOR TREATING INFLAMMATIONS, WOUNDS AND SCARRING” (priority 2020, published 2023).

One data set has as its system TNFα. Nature of the data set: LPS-induced TNFα secretion in RAW 264.7 cells (ELISA). In kind it is cell-based, Mouse. In general terms: ELISA stands for enzyme-linked immunosorbent assay.
In the next data set the test system is IL-1α. Nature of the data set: LPS-induced IL-1α secretion in RAW 264.7 cells (ELISA). Format: cell-based. As to conditions: Mus musculus, read-out: IL-1 alpha inhibition. How it is done: (§1) RAW 264.7 cells ([…] ¢/ml, by counting) were seeded in 96 well plates containing 170 μl/well of complete growth medium (See formulation section). The cells were incubated at 37° C. with 5% CO2 for 24 hr. The medium was aspirated and replaced by LPS-containing medium (25 ng/ml) with or without the Tested Samples at two different concentrations (similarly to what is presented in Table 1). In addition, Naïve cells (Group 1), vehicle treated cells (Group 2), Stimulated Control (Group 3) and Stimulated Vehicle Control (Group 4) served as negative controls. SDS (Group 5) and Dexamethasone (Group 6) served as positive controls for viability and anti-inflammatory assays, respectively. A Blank control group was included in the assay (Group 11), and subtracted from all treatments.
(§2) The cells were incubated at 37° C. with 5% CO2 for 24 hr. At the end of incubation, the viability of the cells was measured using the MTT assay, according to SOP. […] IL-1α, TNFα and IL-6 levels were measured by ELISA, according to manufacturer instructions. […]
(§3) The anti-inflammatory activity of the Tested Samples was examined in the LPS-induced inflammatory model (RAW 264.7 cells) and the secretion of three cytokines was monitored. Then, the compatibility and possible synergistic action of selected combination was determined. IL-1α, TNFα and IL-6 levels were measured by ELISA, according to manufacturer instructions.

The next data set relates to IL-6. Nature of the data set: LPS-induced IL-6 secretion in RAW 264.7 cells (ELISA). Format: cell-based. As to conditions: Mus musculus, RAW264.7, LPS 25 ng/ml, 24 hr. The protocol: as §1, §2, §3
The next data set concerns RAW 264.7 cells. Kind of data set: MTT cell viability (toxicity evaluation) in RAW 264.7 cells. Format: cell-based, Mouse. As to conditions: positive control for viability, 0.1%; 24 hr. The protocol:
The assay was performed on 15 Tested Samples in triplicates (the Tested Samples are labeled 1-11 and 13-16). RAW 264.7 cells (1.7×10^5 ¢/ml, by counting) were seeded in 96 well plates containing […] of complete growth medium (see formulation section). The cells were incubated at 37° C. with 5% CO2 for 24 hr. The medium was aspirated and replaced by LPS-containing medium (25 ng/ml) with or without the Tested Samples at four different concentrations, as described below. In addition, Naive cells (Group 1), vehicle treated cells (Group 2), Stimulated Control (Group 3) and Stimulated Vehicle Control (Group 4) served as negative controls. SDS (Group 5) and Dexamethasone (Group 6) served as positive controls for viability and anti-inflammatory assays, respectively. The blank control group was included in the assay (Group 11), and subtracted from all treatments. The cells were incubated at 37° C. with 5% CO2 for 24 hr. At the end of incubation, the viability of the cells was measured using the MTT assay. Viability greater than 85% was considered nontoxic.

Procedure for TNFα: RAW 264.7 cells (170×105 ¢/ml, by counting) were seeded in 96 well plates containing 170 μl/well of complete growth medium (See formulation section). The cells were incubated at 37° C. with 5% CO2 for 24 hr. The medium was aspirated and replaced by LPS-containing medium (25 ng/ml) with or without the Tested Samples at two different concentrations (similarly to what is presented in Table 1). In addition, Naïve cells (Group 1), vehicle treated cells (Group 2), Stimulated Control (Group 3) and Stimulated Vehicle Control (Group 4) served as negative controls. SDS (Group 5) and Dexamethasone (Group 6) served as positive controls for viability and anti-inflammatory assays, respectively. A Blank control group was included in the assay (Group 11), and subtracted from all treatments.
The cells were incubated at 37° C. with 5% CO2 for 24 hr. At the end of incubation, the viability of the cells was measured using the MTT assay, according to SOP. Viability greater than 85% was considered nontoxic. In addition, the spent media from all test groups was collected under standardized conditions and centrifuged at 250×g for 5 min to remove particulates. Clear supernatants were frozen at −70° C. until cytokine analysis. IL-1α, TNFα and IL-6 levels were measured by ELISA, according to manufacturer instructions.
Cell culturing and treatments was performed under sterile conditions. Experiments were carried out in a certified RAW 264.7 cells (Mouse monocyte macrophage) obtained originally from ECACC. The cells were incubated at 37° C. with 5% CO2 for 24 hr. Then, the medium
was aspirated and replaced by LPS-containing medium (25 ng/ml) with or without the Tested Samples. In addition, Naïve cells, vehicle treated cells, Stimulated Control and Stimulated Vehicle Control served as negative controls. Dexamethasone served as positive controls for anti-inflammatory assays. Blank control group was included in the assay, and subtracted from all treatments.
The anti-inflammatory activity of the Tested Samples was examined in the LPS-induced inflammatory model (RAW 264.7 cells) and the secretion of three cytokines was monitored. […] IL-1α, TNFα and IL-6 levels were measured by ELISA, according to manufacturer instructions.
Experiments were carried out in a certified RAW 264.7 cells (Mouse monocyte macrophage) obtained originally from ECACC. RAW 264.7 cells (approx. 2×105 ¢/ml, by counting) were seeded in 96 well plates containing 170 μl/well of complete growth medium. The cells were incubated at 37° C. with 5% CO2 for 24. Next, the medium was aspirated and replaced by LPS-containing medium (25 ng/ml) with or without the Tested Samples.
In addition, Naïve cells, vehicle treated cells, Stimulated Control and Stimulated Vehicle Control served as controls (FIG. 4A). […]

In the case of `C=C(C)[C@@H]1CCC(C)=C[C@H]1c1c(O)cc(CCCCC)cc1O` [CBD, cannabidiol], the inhibition – broadly, the percentage by which the read-out fell short of the control – at 0.1 µg/mL in the data set with TNFα (Mus musculus, RAW264.7, 0.1 μg/ml alone, LPS 25 ng/ml, 24 hr, read-out: TNF alpha inhibition) came to 12.3%; in the data set with IL-6 (0.1 μg/ml alone), 8.2%. The inhibition at 0.5 µg/mL in the data set on TNFα (Mus musculus, RAW264.7, 0.5 μg/ml alone, LPS 25 ng/ml, 24 hr, read-out: TNF alpha inhibition) came to 22.6%; in the data set with IL-1α (RAW264.7, 0.5 μg/ml alone, LPS 25 ng/ml, 24 hr) it was 7.6%; in the data set on IL-6 (0.5 μg/ml alone), 10.6%.

For the molecule `CCCCCc1cc(O)c(C/C=C(\C)CCC=C(C)C)c(O)c1` [CBG, cannabigerol], the inhibition at 2 µg/mL in the data set on TNFα (Mus musculus, RAW264.7, 24 h, read-out: TNF alpha inhibition) was determined as 26.8%; with IL-1α (RAW264.7, 24 h), 12.9%.

With `CCCCCCCCCCCCOS(=O)(=O)[O-].[Na+]` [SDS], the “cell viability (MTT)” value with RAW 264.7 cells was “toxic and caused a significant reduction in cell viability”.

With `NC(=O)NC1NC(=O)NC1=O` (stereo not drawn) [allantoin], the TNF alpha inhibition entry with TNFα (2 μg/ml alone, LPS 25 ng/ml) is on record as “no activity”.
